For orientation: EC50 means the concentration giving half of the maximal effect. Read a high EC50 as lower potency in that assay. What is called IC50 is the concentration that gives 50% inhibition.

Results on 1 compound are retold here after patent US8389509B2, “Substituted pyrazole compounds” (Bristol-Myers Squibb Company, priority 2009, dated 2013).

For assay [1], the target named is T1, S1P1 (Homo sapiens, UniProt P21453).
T1 construct: expressed in transfected cells; host or cells: CHO cells
Kind of assay: Method B: Receptor [35S] GTPγS SPA Binding Assay, S1P1. The format is biochemical. The protocol: (§1) Method B: Receptor [^35S] GTPγS SPA Binding Assays
(§2) Membranes prepared from S1P1 or S1P3 transfected CHO cells (2 μg protein) were incubated in 96-well white plates (CORNING® 3693) with test compounds diluted in DMSO, in 50 μl of reaction mixture containing 7.5 μA WGA-PVT beads (20 mg/ml), and 5 μM GDP, 20 mM HEPES pH 7.4, 100 mM NaCl, 1 mM EDTA, 5 mM MgCl2, 10 μg/ml saponin, 0.1% BSA, and 1 μM leupeptin. The assay was initiated with the addition of […] of 0.2 nM [^35S]-GTPγS (1250 Ci/mmol; NEN) in assay buffer. After 90 min incubation at room temperature, spin the plate at 1000 rpm for 5 min. The bound radionuclides were measured at TOPCOUNT®, expressed as % response relative to S1P (1 μM) activation. Data was analyzed using the four parameter logistic equation in Excel. The four parameters in the equation, Y=A+((B−A)/(1+((EC50/X)^D))), are described as following: A is the Y value (agonist activity) at the bottom plateau; B is the Y value at the top plateau; EC50 is the X value (agonist concentration) when the response is halfway between bottom and top; D is Hill coefficient. Curves were not generated for compounds having Ymax values were below 50%.
(§3) Compounds of the present invention and Comparative Compound A were tested in the Receptor [^35S] GTPγS Binding Assays (Method A) and Receptor [^35S] In some instances, the value is an average of multiple experiments where N is the number of experiments conducted that provided satisfactory dose response curves. When more than one batch of an example was tested, the value presented is from a batch which allowed a comparison of GTPγS S1P1 and GTPγS S1P3 in which the most number of experiments were performed. Preferably, the same batch was examined in Method A and Method B. Data was not averaged across different batches of an example compound.
For orientation: Binding of GTPγS marks nucleotide exchange on a G protein.

In assay [2] the target is T2, S1P3 (Homo sapiens, UniProt Q99500). Nature of the assay: Method B: Receptor [35S] GTPγS SPA Binding Assay, S1P3. Type of assay: biochemical. Also noted: expressed in transfected cells; host or cells: CHO cells. Conditions: S1P3 transfected CHO cell membranes. The protocol: as §1, §2, §3
Assay [3] addresses T1, S1P1. Kind of assay: S1P1 Binding Assay (33P-S1P competition, CHO membranes). Conditions: membranes of CHO cells expressing human S1P1, 33P-S1P ligand; read-out: S1P1 B IC50. As for the experimental part:
Membranes were prepared from CHO cells expressing human S1P1. Cells were dissociated in buffer containing 20 mM HEPES, pH 7.5, 50 mM NaCl, 2 mM EDTA and Protease Inhibitor cocktail (Roche), and disrupted on ice using the Polytron homogenizer. The homogenate was centrifuged at 20,000 rpm (48,000 g) and the supernatant was discarded. The membrane pellets were resuspended in buffer containing 50 mM HEPES, pH 7.5, 100 mM NaCl, 1 mM MgCl2, 2 mM EDTA and stored in aliquots at −80° C. after protein concentration determination.
Membranes (2 μg/well) and 0.03 nM final concentration of ^33P-S1P ligand (1 mCi/ml, American Radiolabeled Chemicals) were added to the compound plates. Binding was performed for 60 min at room temperature, terminated by collecting the membranes onto GF/B filter plates, and radioactivity was measured by TOPCOUNT®. The competition data of the test compounds over a range of concentrations was plotted as percentage inhibition of radioligand specific binding. The IC50 is defined as the concentration of competing ligand needed to reduce specific binding by 50%.
Compounds of the present invention and Comparative Compound A were tested in the S1P1 binding assay described hereinabove and the results rounded to two digits, shown in Table A were obtained. In some instances, the value is an average of multiple experiments where N is the number of experiments conducted that provided satisfactory dose response curves. When more than one batch of an example was tested, the value presented is from the batch which allowed a comparison of GTPγS S1P1 and GTPγS S1P3 in Method A (Data shown in Table B). Data was not averaged across different batches of an example compound.

Assay [4] deals with T2, S1P3. Kind of assay: Method A: Receptor [35S] GTPγS Binding Assay, S1P3. Type of assay: biochemical. Also noted: expressed in transfected cells. Conditions: EDG3-Gal5-bla HEK293T cell membranes. The protocol: Method A: Receptor [35S] GTPγS Binding Assays
Compounds were loaded in a 384 FALCON® v-bottom plate (0.5 μl/well in a 3-fold dilution). Membranes prepared from S1P1/CHO cells or EDG3-Gal5-bla HEK293T cells were added to the compound plate (40 μl/well, final protein 3 μg/well) with MULTIDROP®. [^35S]GTP (1250 Ci/mmol, Perkin Elmer) was diluted in assay buffer: 20 mM HEPES, pH7.5, 10 mM MgCl2, 150 mM NaCl, 1 mM EGTA, 1 mM DTT, 10 μM GDP, 0.1% fatty acid free BSA, and 10 μg/ml Saponin to 0.4 nM. 40 μl of the [^35S] GTP solution was added to the compound plate with a final concentration of 0.2 nM. The reaction was kept at room temperature for 45 min. At the end of incubation, all the mixtures in the compound plate were transferred to a 384 well FB filter plates via GPCR robot system. The filter plate was washed with water 4 times by using the modified manifold Embla plate washer and dried at 60° C. for 45 min. 30 μA of MicroScint 20 scintillation fluid was added to each well for counting at Packard TOPCOUNT®. EC50 is defined as the agonist concentration that corresponds to 50% of the Ymax (maximal response) obtained for each individual compound tested.
as §3

Assay [5] has as its system Lewis rats. Kind of assay: Rat Adjuvant Induced Arthritis Assay (AA). Type of assay: in vivo. The settings on record: for Paw Swelling (mL) on Day 20, Mean: vehicle mean 2.11. As for the experimental part:
Rat Adjuvant Induced Arthritis Assay (AA)
Male Lewis rats (150-175 g; Harlan, n=8 treatment group) were immunized at the base of the tail with 100 μl of 10 mg/ml freshly ground Mycobacterium butyricum (Difco Laboratories) in incomplete Freund's adjuvant (sigma). Animals were dosed once daily with the test article (as a solution or suspension in the vehicle) or vehicle alone (polyethylene glycol 300, “PEG300”) starting from the day of immunization. The volumes of their hind paws were measured in a water displacement plethysmometer (Ugo Basile, Italy). The baseline paw measurements were taken before onset of the disease (between day 7 to day 10). The paw measurements were then taken three times a week until the end of the study on day 20 to 21. All procedures involving animals were reviewed and approved by the Institutional Animal Care Use Committee.
Compounds of the present invention were tested in the Rat Adjuvant Induced Arthritis assay described hereinabove and the results are shown in Table F and Table G.

SMILES strings stand for the structures.

T1 sequence (P21453 whole entry): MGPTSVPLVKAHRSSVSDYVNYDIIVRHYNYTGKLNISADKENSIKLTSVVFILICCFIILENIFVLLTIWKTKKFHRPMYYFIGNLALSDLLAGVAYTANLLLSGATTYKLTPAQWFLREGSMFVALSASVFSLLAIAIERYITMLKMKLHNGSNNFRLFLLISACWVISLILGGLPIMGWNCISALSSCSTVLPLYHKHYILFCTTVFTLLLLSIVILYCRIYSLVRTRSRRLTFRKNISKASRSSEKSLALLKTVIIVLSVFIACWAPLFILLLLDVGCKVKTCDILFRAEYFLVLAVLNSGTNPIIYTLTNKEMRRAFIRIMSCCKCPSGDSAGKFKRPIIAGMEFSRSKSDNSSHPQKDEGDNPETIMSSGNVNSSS
T2 sequence (Q99500 whole entry): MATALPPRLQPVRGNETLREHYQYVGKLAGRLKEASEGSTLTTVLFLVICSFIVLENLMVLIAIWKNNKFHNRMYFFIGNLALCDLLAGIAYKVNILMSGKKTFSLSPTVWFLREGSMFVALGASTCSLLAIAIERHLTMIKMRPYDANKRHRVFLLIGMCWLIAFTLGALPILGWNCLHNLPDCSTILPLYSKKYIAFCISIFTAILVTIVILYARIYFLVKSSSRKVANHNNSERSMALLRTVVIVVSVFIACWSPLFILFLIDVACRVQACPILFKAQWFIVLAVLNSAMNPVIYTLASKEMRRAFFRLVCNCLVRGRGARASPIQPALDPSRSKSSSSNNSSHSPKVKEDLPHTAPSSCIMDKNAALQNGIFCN

Regarding `O=C(O)C1CN(Cc2ccc(-c3noc(-c4cnn(-c5ccccn5)c4C(F)(F)F)n3)cc2)C1` [Example 1, 1-(4-(5-(1-(Pyridin-2-yl)-5-(trifluoromethyl)-1H-pyrazol-4-yl)-1,2,4-oxadiazol-3-yl)benzyl)azetidine-3-carboxylic acid], the EC50 in assay [1] (Method B (SPA), S1P1 transfected CHO cell membranes) came out at 0.5 nM; in assay [2], 4400 nM; in assay [4] it was 6700 nM. For the same compound, the “GTPγS S1P3/S1P1 (Method B)” value in assay [1] (ratio of S1P3 EC50 to S1P1 EC50, Method B) is listed as 8,800. Besides, the half-maximal inhibitory concentration (IC50) in assay [3] is 0.4 nM. Also, the “Paw Swelling (mL) on Day 20, Mean” value in assay [5] (1.0 mg/kg once daily) is 2.36 mL; in assay [5] (3.0 mg/kg once daily) it was 1.45 mL; in assay [5] (6.0 mg/kg once daily) it was 0.17 mL; in assay [5] (10.0 mg/kg once daily) it was 0.12 mL. Besides, the “disease progression as measured by paw swelling” value in assay [5] (Lewis rat, prophylactic oral dosing) is reported as “inhibit disease progression”.
